A short description of this series: logP determination by HPLC on a reversed-phase column (C 18), EEC Directive 79/831 Annex V.A8. The conditions noted are these: for chromatographic logP: reversed-phase C18 HPLC column. The procedure:
Temperature: 40° C.; Mobile phases: 0.1% aqueous formic acid and acetonitrile; linear gradient from 10% acetonitrile to 90% acetonitrile.

The mark [1] stands for this setting: HPLC reversed-phase C18, 40° C., 0.1% aqueous formic acid and acetonitrile, gradient 10% to 90% acetonitrile.

Read-outs that look alike come from different tables or passages of the source.

With `Cc1nnnn1C(=NOCc1cccc(NC(=O)C(C)(C)C)n1)C1CCCCC1` [Compound 30], the LogP (as a rule, the decadic logarithm of the partition coefficient of the neutral form, usually between octanol and water) under setting [1] is given as 3.96.
`Cc1nnnn1C(Cc1ccccc1)=NOCc1csc(NC(=O)C2CC2)n1` [Compound 1] returned a LogP under setting [1] of 2.56.
As to `Cc1nnnn1C(Cc1ccccc1)=NOCc1csc(NC(=S)NCc2ccccc2)n1` [Compound 3], the LogP under setting [1] amounted to 3.64.
On the same count and under the same terms, in the case of `Cc1nnnn1C(Cc1ccccc1)=NOCc1csc(NC(=O)CCCc2ccccc2)n1` [Compound 9] it was 3.61; in that of `Cc1nnnn1C(Cc1ccccc1)=NOCc1csc(NC(=O)C(C)(C)C)n1` [Compound 7], 3.15; in that of `Cn1nnnc1C(=NOCc1cccc(NC(=O)C2CC2)n1)C1CCCCC1` [Compound 73], 3.2.
Same read-out and setting: in the case of `Cn1nnnc1C(=NOCc1cccc(NC(=O)C(F)(F)F)n1)C1CCCCC1` [Compound 76] it was 3.69.
On to `CCCCCC(=O)Nc1ccnc(CON=C(c2ccccc2)c2nnnn2C)n1` [Compound 78], for which, under setting [1], the LogP is 3.46.
On the same count and under the same terms, in the case of `Cc1nnnn1C(=NOCc1cccc(N)n1)C1CC1` [Compound 41] it was 0.87.
Still for that read-out and setting: in the case of `Cc1nnnn1C(=NOCc1cccc(NC(=O)NCCc2ccc(F)cc2)n1)C1CC1` [Compound 44] it was 2.5; in that of `CCCC(=O)Nc1cccc(CON=C(C2CCCCC2)n2nnnc2C)n1` [Compound 33], 3.55; in that of `Cc1nnnn1C(Cc1ccccc1)=NOCc1csc(NC(=O)C2CCCC2)n1` [Compound 11], 3.18.
Same read-out and setting: in the case of `Cc1ccc(C(=NOCc2nsc(NC(=O)Cc3ccccc3)n2)c2nnnn2C)cc1` [Compound 69] it was 3.22.
Compound `CC(C)CC(=O)Nc1ccnc(CON=C(c2ccccc2)c2nnnn2C)n1` [Compound 82] yielded a LogP under setting [1] of 3.
As for `Cc1nnnn1/C(=N/OCc1cccc(N)n1)C1CCCCC1` [Compound 23, O-(2-Aminopyridin-6-yl)methyl-(5-methyltetrazol-1-yl)-cyclohexylmethanone oxime], the chromatographic logP (as a rule, lipophilicity estimated from chromatographic retention) was determined as 1.43.
Turning to `Cc1nnnn1C(Cc1ccccc1)=NOCc1csc(NC(=O)Cc2ccccc2)n1` [Compound 6], the log partition coefficient (LogP) under setting [1] worked out at 3.06.
Turning to `CCCCCC(=O)Nc1cccc(CON=C(CCc2ccccc2)n2nnnc2C)n1` [Compound 17], the LogP under setting [1] was found to be 3.84.
Same read-out and setting: in the case of `CCCCCC(=O)Nc1cccc(CON=C(c2nnnn2C)C2CCCCC2)n1` [Compound 71] it was 4.25.
Compound `CCCCCC(=O)Nc1cccc(CO/N=C(\C2CCCCC2)n2nnnc2C)n1` [Compound 27, O-(2-n-Pentylcarbonylaminopyridin-6-yl)methyl-(5-methyltetrazol-1-yl)-cyclohexylmethanone oxime] returned a chromatographic logP of 4.39.
As to `CCCC(=O)Nc1nc(CON=C(Cc2ccccc2)n2nnnc2C)cs1` [Compound 2], under setting [1], the LogP stood at 2.73.
`CCCCCNC(=O)Nc1nc(CON=C(Cc2ccccc2)n2nnnc2C)cs1` [Compound 5] had a LogP under setting [1] of 3.18.
Turning to `Cc1nnnn1C(=NOCc1cccc(NC(=O)NC2CC2)n1)C1CC1` [Compound 46], the LogP under setting [1] stood at 1.88.
Still for that read-out and setting: in the case of `Cc1nnnn1C(=NOCc1cccc(NC(=O)C2CC2)n1)C1CC1` [Compound 48] it was 2.11; in that of `COc1ccc(C(=O)Nc2cccc(CON=C(C3CCCCC3)n3nnnc3C)n2)cc1` [Compound 24], 3.99.
The same measure, in the same setting: in the case of `CC(C)C(=O)Nc1ccnc(CON=C(c2ccccc2)c2nnnn2C)n1` [Compound 81] it was 2.68; in that of `COc1ccc(OC(=O)Nc2cccc(CON=C(C3CCCCC3)n3nnnc3C)n2)cc1` [Compound 26], 4.16.
Same read-out and setting: in the case of `Cn1nnnc1C(=NOCc1nccc(NC(=O)C(C)(C)C)n1)c1ccccc1` [Compound 79] it was 3.06.
In the case of `CCCNC(=O)Nc1cccc(CON=C(C2CC2)n2nnnc2C)n1` [Compound 50], the LogP under setting [1] was determined as 2.09.
In the case of `COCCNC(=O)Nc1cccc(CON=C(C2CCCCC2)n2nnnc2C)n1` [Compound 38], the LogP under setting [1] turned out to be 2.78.
On the same count and under the same terms, in the case of `Cn1nnnc1C(=NOCc1nccc(N)n1)c1ccccc1` [Compound 77] it was 0.92; in that of `CCCCCOC(=O)Nc1cccc(CON=C(C2CCCCC2)n2nnnc2C)n1` [Compound 29], 5.
As to `Cc1nnnn1C(=NOCc1nsc(N)n1)c1cccc(Cl)c1` [Compound 65, O-(5-Amino-1,2,4-thiadiazol-3-yl)methyl-(3-chlorophenyl-5-methyltetrazol-1-yl)methanone oxime], the LogP turned out to be 2.17.
With `Cc1nnnn1/C(=N/OCc1cccc(N2C(=O)c3ccccc3C2=O)n1)C1CCCCC1` [Compound 22, O-(2-Phtalimidopyridin-6-yl)methyl-(5-methyltetrazol-1-yl)-cyclohexylmethanone oxime], the chromatographic logP turned out to be 3.46.
In the case of `COc1ccc(CCNC(=O)Nc2cccc(CON=C(C3CC3)n3nnnc3C)n2)cc1` [Compound 51], the LogP under setting [1] came out at 2.44.
On the same count and under the same terms, in the case of `Cc1nnnn1C(Cc1ccccc1)=NOCc1csc(NC(=O)NC(C)(C)C)n1` [Compound 4] it was 2.91.
Compound `Cn1nnnc1C(=NOCc1nccc(NC(=O)C2CC2)n1)c1ccccc1` [Compound 80] registered a LogP under setting [1] of 2.5.
The same measure, in the same setting: in the case of `CCCCCC(=O)Nc1nc(CON=C(Cc2ccccc2)n2nnnc2C)cs1` [Compound 8] it was 3.3; in that of `Cc1ccc(C(=NOCc2nsc(N)n2)c2nnnn2C)cc1` [Compound 68], 2.07.

The record behind these values is US8119646B2, “Fungicide hydroximoyl-tetrazole derivatives” (Bayer CropScience AG, priority 2006, dated 2012).
